What was measured:
Assay in all cases: normalised response (% of control), CellTiter-Glo; higher = more viable cells (100 = DMSO, 0 = benzethonium chloride kill control)
Conditions in all cases: incubation time: 72 h
Hs578T = test system: Hs578T
How it was run: (§1)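 Two readouts were taken after 72 h: CellTox Green fluorescence (485/520 nm) first, then CellTiter-Glo luminescence after 10 min at room temperature. Breast cancer cell lines had been seeded as 20 µl suspension into 384-well plates holding compound at 5 concentrations in 10-fold steps across a compound-specific 10,000-fold range. Each value is a normalised signal at a single concentration, with plates scaled to 0.1 % DMSO (100) and a positive kill control (0).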

MDA-MB-468 = test system: MDA-MB-468
How it was run: as §1

CAL-85-1 = test system: CAL-85-1
How it was run: as §1

HCC1143 = test system: HCC1143
How it was run: as §1

CAL-51 = test system: CAL-51
How it was run: as §1

SK-BR-3 = test system: SK-BR-3
How it was run: as §1

MDA-MB-453 = test system: MDA-MB-453
How it was run: as §1

MDA-MB-436 = test system: MDA-MB-436
How it was run: as §1

BT-474 = test system: BT-474
How it was run: as §1

CAL-120 = test system: CAL-120
How it was run: as §1

MCF-10A = test system: MCF-10A
How it was run: as §1

HCC1937 = test system: HCC1937
How it was run: as §1

CAL-148 = test system: CAL-148
How it was run: as §1

MFM-223 = test system: MFM-223
How it was run: as §1

HDQ-P1 = test system: HDQ-P1
How it was run: as §1

DU-4475 = test system: DU-4475
How it was run: as §1

BT-549 = test system: BT-549
How it was run: as §1

HCC1599 = test system: HCC1599
How it was run: as §1

MDA-MB-231 = test system: MDA-MB-231
How it was run: as §1

Row | Structure (SMILES) | normalised response (Hs578T) | normalised response (MDA-MB-468) | normalised response (CAL-85-1) | normalised response (HCC1143) | normalised response (CAL-51) | normalised response (SK-BR-3) | normalised response (MDA-MB-453) | normalised response (MDA-MB-436) | normalised response (BT-474) | normalised response (CAL-120) | normalised response (MCF-10A) | normalised response (HCC1937) | normalised response (CAL-148) | normalised response (MFM-223) | normalised response (HDQ-P1) | normalised response (DU-4475) | normalised response (BT-549) | normalised response (HCC1599) | normalised response (MDA-MB-231)
1 | Cn1c(=O)c(F)c(Nc2ccc(I)cc2F)c2c(=O)n(C[C@@H](O)CO)cnc21 [TAK-733] (100 nM) | 96.5% | 79.6% | 69.8% | 93.5% | 64.6% | 117% | 123% | 97.1% | 67.2% | 76.7% | 38.8% | 82.7% | 90.4% | 98.8% | 66.3% | 1.33% | 91.6% | 93% | 78%
2 | C[C@@H]1C=C2C(=O)O[C@@H]3CC[C@H](C1)[C@]23O [Galiellalactone] (5000 nM) | 111% | 82% | 96.2% | 101% | 71.9% | 102% | 105% | 106% | 99.3% | 103% | 105% | 98.4% | 110% | 104% | 100% | 102% | 97.6% | 98.4% | 114%
3 | COc1ccc(C2=N[C@@H](c3ccc(Cl)cc3)[C@@H](c3ccc(Cl)cc3)N2C(=O)N2CCNC(=O)C2)c(OC(C)C)c1 [Nutlin-3] (1000 nM) | 106% | 99.9% | 96.8% | 99.8% | 83.9% | 109% | 102% | 110% | 98.9% | 93.6% | 102% | 102% | 101% | 104% | 105% | 96.5% | 100% | 117% | 106%
4 | COc1ncc(-c2ccc3nccc(-c4ccnnc4)c3c2)cc1NS(=O)(=O)c1ccc(F)cc1F (100 nM) | 39% | 37.9% | 31.8% | 38.2% | 29.5% | 23.6% | 20.1% | 46.7% | 52.7% | 45.6% | 31.8% | 54.6% | 42.5% | 37% | 25.5% | 78.1% | 27.1% | 55.4% | 55%
5 | COC1=C2C[C@@H](C)C[C@H](OC)[C@H](O)[C@@H](C)/C=C(\C)[C@H](OC(N)=O)[C@@H](OC)/C=C\C=C(/C)C(=O)NC(=CC1=O)C2=O [Geldanamycin] (1000 nM) | 103% | 104% | 92.7% | 102% | 96.2% | 87.1% | 96.6% | 64.4% | 101% | 102% | 99.7% | 89.8% | 106% | 40.4% | 97.2% | 91.4% | 81.2% | 99.6% | 97.9%
6 | COc1cccc2c1C(=O)c1c(O)c3c(c(O)c1C2=O)C[C@@](O)(C(C)=O)C[C@@H]3O[C@H]1C[C@H](N)[C@H](O)[C@H](C)O1 [Daunorubicin] (100 nM) | 92.6% | 54.9% | 97.5% | 95.8% | 46.2% | 91.9% | 139% | 77.9% | 82.5% | 93.1% | 103% | 98.2% | 64.8% | 115% | 91.8% | 86.9% | 68.9% | 103% | 88.7%
7 | CN1CCN(c2ccc3nc(-c4c(N)c5c(F)cccc5[nH]c4=O)[nH]c3c2)CC1 [Dovitinib] (1000 nM) | 101% | 93.7% | 117% | 99.1% | 115% | 97.2% | 92% | 101% | 95.1% | 92.1% | 97.2% | 94.7% | 94.9% | 95.4% | 102% | 101% | 95.5% | 106% | 101%
8 | Cn1cnc2c(F)c(Nc3ccc(Br)cc3F)c(C(=O)NOCCO)cc21 [MEK-162] (100 nM) | 86.2% | 94.7% | 99.2% | 90.5% | 104% | 101% | 104% | 100% | 88.8% | 94% | 49% | 95% | 91.1% | 102% | 71.4% | 42.6% | 100% | 104% | 92%
9 | CC(C)C[C@H](NC(=O)[C@H](Cc1ccccc1)NC(=O)c1cnccn1)B(O)O [Bortezomib] (100 nM) | 0.6% | 0.63% | 1.51% | 10.9% | 1.1% | 4.21% | 29.7% | 2.39% | 1.56% | 10.4% | 68.6% | 59% | 22.6% | 3.48% | 3.18% | 13% | 1.75% | 56.6% | 0.34%
10 | CC(C)(C)c1cc(NC(=O)Nc2ccc(-c3cn4c(n3)sc3cc(OCCN5CCOCC5)ccc34)cc2)no1 [Quizartinib] (100 nM) | 98.5% | 113% | 102% | 105% | 107% | 105% | 104% | 111% | 108% | 106% | 105% | 102% | 100% | 109% | 100% | 104% | 106% | 111% | 108%
11 | CCS(=O)(=O)c1cccc(-c2cc(C(=O)NC3CCN(C)CC3)c(C)c3[nH]c4ncc(C)cc4c23)c1 [TAK-901] (100 nM) | 98.2% | 38.5% | 103% | 77.2% | 82.4% | 106% | 160% | 97.2% | 82% | 81.5% | 80.2% | 102% | 45.6% | 79.5% | 86.2% | 98.5% | 82% | 109% | 77.6%
12 | CCOc1cc2ncc(C#N)c(Nc3ccc(OCc4ccccn4)c(Cl)c3)c2cc1NC(=O)/C=C/CN(C)C [Neratinib] (100 nM) | 103% | 82.8% | 67.9% | 98.8% | 112% | 25% | 68% | 95% | 102% | 99% | 43.1% | 88% | 83.4% | 101% | 69.8% | 101% | 97.5% | 102% | 102%
13 | O=c1[nH]cc(F)c(=O)[nH]1 [Fluorouracil] (1000 nM) | 97.1% | 98.7% | 52.8% | 100% | 110% | 78.9% | 121% | 75.6% | 111% | 106% | 116% | 94.7% | 95.6% | 102% | 92.2% | 90.2% | 104% | 84% | 97.7%
14 | C#Cc1cccc(Nc2ncnc3cc(OC)c(OCCCCCCC(=O)NO)cc23)c1 [CUDC-101] (1000 nM) | 73.9% | 18.8% | 6.55% | 48.9% | 68.4% | 33.5% | 13.5% | 73.7% | 72.9% | 74.2% | 28.9% | 63.6% | 60.3% | 33.4% | 70% | 64.1% | 66.9% | 47.9% | 39.1%
15 | O=C(c1ccc(OCCN2CCCCC2)cc1)c1c(-c2ccc(O)cc2)sc2cc(O)ccc12 [Raloxifene] (1000 nM) | 107% | 92.6% | 94.4% | 110% | 121% | 105% | 103% | 103% | 102% | 96.3% | 108% | 100% | 103% | 95.6% | 100% | 103% | 102% | 99.8% | 107%
16 | O=c1[nH]c(=O)n([C@H]2C[C@H](O)[C@@H](CO)O2)cc1F [Floxuridine] (1000 nM) | 13.5% | 69.4% | 42.7% | 94.3% | 37.8% | 54.2% | 102% | 67.9% | 67.1% | 39.8% | 106% | 56.4% | 92.4% | 104% | 83.9% | 92.8% | 85.4% | 67.7% | 76.8%
17 | CC(=O)O[C@H]1C(=O)[C@@]2(C)[C@H]([C@H](OC(=O)c3ccccc3)[C@]3(O)C[C@H](OC(=O)[C@H](O)[C@@H](NC(=O)c4ccccc4)c4ccccc4)C(C)=C1C3(C)C)[C@]1(OC(C)=O)CO[C@@H]1C[C@@H]2O [Paclitaxel] (100 nM) | 11.4% | 21.7% | 20.9% | 30.7% | 29.3% | 10.2% | 57.5% | 28.1% | 36.7% | 47.7% | 33.5% | 66.2% | 39.6% | 38.2% | 60.4% | 51.5% | 15% | 36.2% | 33.2%
18 | COc1c(C)cnc(Cn2cnc3c(Cl)nc(N)nc32)c1C [BIIB021] (1000 nM) | 55.5% | 43.4% | 26.9% | 38.6% | 19% | 37.8% | 27.8% | 42.5% | 31.1% | 53.6% | 15.4% | 24.7% | 23.9% | 40.2% | 29.5% | 0.4% | 37.3% | 54.3% | 25.5%
19 | C[C@@]1(C(=O)Nc2ccc(F)nc2)CCCN1c1nc(Nc2cc(C3CC3)n[nH]2)c2cccn2n1 (1000 nM) | 86.5% | 21.4% | 57.6% | 71.5% | 62.5% | 67.9% | 115% | 66.9% | 62.8% | 59.3% | 20.4% | 86.9% | 84.9% | 58.1% | 46.7% | 80.4% | 61.4% | 72.8% | 62.4%
